Legend:
Format in all cases: cell-based
Set-up in all cases: dose or concentration left out as unconfirmed
Settings in all cases: 96 hours
[1] = system: prostate tumor cell line DU-145; assay: Trypan blue exclusion viability assay, DU145
Procedure: (§1) MCF-7 is estrogen-responsive, while BT-20 is an estrogen-unresponsive cell line. NIH/3T3 and HFL are normal murine and human fibroblasts, respectively. MCF-7, BT-20, DLD-1 and H157 were grown in Dulbecco's modified Eagle's medium (DMEM) containing 10% fetal bovine serum supplemented with penicillin and streptomycin. DU145 was cultured in RPMI with 10% fetal bovine serum containing penicillin and streptomycin. […] All cell cultures were maintained at 37° C. in a humidified atmosphere of 5% CO2. Cells were treated with test compound at 2.5 mM concentration and cell viability was determined after 96 hours by the Trypan blue exclusion method.

[2] = system: breast tumor cell line MCF-7; assay: Trypan blue exclusion viability assay, MCF-7
Procedure: as §1

[3] = system: non-small cell lung carcinoma cell line H157; assay: Trypan blue exclusion viability assay, H157
Procedure: as §1

[4] = system: colorectal carcinoma cell line DLD-1; assay: Trypan blue exclusion viability assay, DLD-1
Procedure: as §1

[5] = system: breast tumor cell line BT-20; assay: Trypan blue exclusion viability assay, BT20
Procedure: as §1

Compound | Cell death, DU145 [1] | Cell death, MCF-7 [2] | Cell death, H157 [3] | Cell death, DLD-1 [4] | Cell death, BT20 [5]
N#Cc1ccc(CS(=O)(=O)/C=C/c2ccc(F)cc2)cc1 [Example 10, (E)-4-Fluorostyryl-4-cyanobenzylsulfone] | ++ (10-15% = ++) | +++ (40-50% = +++) | +++ (40-50% = +++) | – | –
O=S(=O)(/C=C/c1ccc(Cl)c(Cl)c1)Cc1ccc(Cl)cc1 [Example 17, (E)-3,4-Dichlorostyryl-4-chlorobenzylsulfone] | + (5-10%: = +) | + (5-10%: = +) | – | + (5-10%: = +) | –
O=S(=O)(/C=C/c1ccc(F)cc1)Cc1ccc(C(F)(F)F)cc1 [Example 1, (E)-4-Fluorostyryl-4-trifluoromethylbenzylsulfone] | +++ (40-50% = +++) | +++ (40-50% = +++) | ++ (10-15% = ++) | +++ (40-50% = +++) | +++ (40-50% = +++)
N#Cc1ccc(CS(=O)(=O)/C=C/c2ccc(Br)cc2)cc1 [Example 12, (E)-4-Bromostyryl-4-cyanobenzylsulfone] | − (0% = −) | − (0% = −) | + (5-10%: = +) | − (0% = −) | –
N#Cc1ccc(CS(=O)(=O)/C=C/c2ccc(Cl)cc2)cc1 [Example 11, (E)-4-Chlorostyryl-4-cyanobenzylsulfone] | + (5-10%: = +) | + (5-10%: = +) | + (5-10%: = +) | – | –
O=S(=O)(/C=C/c1ccc(F)c(Cl)c1)Cc1ccc(Cl)cc1 [Example 14, (E)-3-Chloro-4-fluorostyryl-4-chlorobenzylsulfone] | − (0% = −) | − (0% = −) | − (0% = −) | − (0% = −) | –
O=[N+]([O-])c1ccc(CS(=O)(=O)/C=C/c2ccc(F)cc2)cc1 [Example 9, (E)-4-Fluorostyryl-4-nitrobenzylsulfone] | ++ (10-15% = ++) | ++ (10-15% = ++) | ++ (10-15% = ++) | − (0% = −) | ++ (10-15% = ++)
O=S(=O)(/C=C/c1ccc(Cl)cc1Cl)Cc1ccc(Cl)cc1 [Example 16, (E)-2,4-Dichlorostyryl-4-chlorobenzylsulfone] | +++ (40-50% = +++) | ++++ (50-60% = ++++) | – | ++++ (50-60% = ++++) | –
O=S(=O)(/C=C/c1ccc(F)cc1)Cc1ccc(Cl)cc1Cl [Example 4, (E)-4-Fluorostyryl-2,4-dichlorobenzylsulfone] | ++ (10-15% = ++) | ++ (10-15% = ++) | + (5-10%: = +) | – | ++ (10-15% = ++)
O=S(=O)(/C=C/c1ccc(F)c(F)c1)Cc1ccc(Cl)cc1 [Example 13, (E)-3,4-Difluorostyryl-4-chlorobenzylsulfone] | − (0% = −) | − (0% = −) | − (0% = −) | − (0% = −) | –
O=S(=O)(/C=C/c1cccc(Cl)c1Cl)Cc1ccc(Cl)cc1 [Example 18, (E)-2,3-Dichlorostyryl-4-chlorobenzylsulfone] | + (5-10%: = +) | + (5-10%: = +) | – | + (5-10%: = +) | –
O=S(=O)(/C=C/c1ccc(Cl)cc1)Cc1ccc(C(F)(F)F)cc1 [Example 2, (E)-4-Chlorostyryl-4-trifluoromethylbenzylsulfone] | ++ (10-15% = ++) | ++ (10-15% = ++) | – | ++ (10-15% = ++) | ++ (10-15% = ++)
O=S(=O)(/C=C/c1ccc(Cl)cc1)Cc1ccc(Cl)cc1Cl [Example 5, (E)-4-Chlorostyryl-2,4-dichlorobenzylsulfone] | + (5-10%: = +) | +++ (40-50% = +++) | ++ (10-15% = ++) | ++ (10-15% = ++) | –
O=S(=O)(/C=C/c1ccc(F)cc1Cl)Cc1ccc(Cl)cc1 [Example 15, (E)-2-Chloro-4-fluorostyryl-4-chlorobenzylsulfone] | +++++ (Above 80% = +++++) | +++++ (Above 80% = +++++) | +++++ (Above 80% = +++++) | +++++ (Above 80% = +++++) | –
O=S(=O)(/C=C/c1ccc(F)cc1C(F)(F)F)Cc1ccc(Cl)cc1 [Example 42, (E)-2-trifluoromethyl-4-fluorostyryl-4-chlorobenzylsulfone] | + (5-10%: = +) | – | + (5-10%: = +) | + (5-10%: = +) | + (5-10%: = +)
COc1ccc(CS(=O)(=O)/C=C/c2ccc(Br)cc2)cc1 [Example 62, (E)-4-bromostyryl-4-methoxybenzylsulfone] | ++++ (50-60% = ++++) | – | ++++ (50-60% = ++++) | ++++ (50-60% = ++++) | ++++ (50-60% = ++++)
O=S(=O)(/C=C/c1ccc(F)cc1)Cc1ccc(Cl)c(Cl)c1 [Example 6, (E)-4-Fluorostyryl-3,4-dichlorobenzylsulfone] | ++++ (50-60% = ++++) | ++++ (50-60% = ++++) | – | – | ++++ (50-60% = ++++)
O=[N+]([O-])c1ccc(CS(=O)(=O)/C=C/c2ccc(F)cc2)cc1 [Example 67, (E)-4-fluorostyryl-4-nitrobenzylsulfone] | + (5-10%: = +) | – | + (5-10%: = +) | + (5-10%: = +) | + (5-10%: = +)
O=S(=O)(/C=C/c1ccc(I)cc1)Cc1ccc(Br)cc1 [Example 22, (E)-4-Iodostyryl-4-bromobenzylsulfone] | ++ (10-15% = ++) | – | ++ (10-15% = ++) | ++ (10-15% = ++) | ++ (10-15% = ++)
